# Measured values reported in PubChem BioAssay AID588764 (Broad Institute, 2011).
# Results filed as inconclusive are left out. Activity calls are given as the source filed them. No rule for the calls is given here.
# Biological target: Histone acetyltransferase RTT109 (Candida albicans (strain SC5314 / ATCC MYA-2876)) (UniProt Q5AAJ8)
# Test: Rtt109/Vps75 acetyltransferase inhibitor potency, dose response, biochemical, cherry-picked hits, plate reader (AID 588764)
# Details: Rtt109/Vps75 HAT activity
# Chain of Histone acetyltransferase RTT109 (Candida albicans (strain SC5314 / ATCC MYA-2876)) (Q5AAJ8 whole entry, looked up): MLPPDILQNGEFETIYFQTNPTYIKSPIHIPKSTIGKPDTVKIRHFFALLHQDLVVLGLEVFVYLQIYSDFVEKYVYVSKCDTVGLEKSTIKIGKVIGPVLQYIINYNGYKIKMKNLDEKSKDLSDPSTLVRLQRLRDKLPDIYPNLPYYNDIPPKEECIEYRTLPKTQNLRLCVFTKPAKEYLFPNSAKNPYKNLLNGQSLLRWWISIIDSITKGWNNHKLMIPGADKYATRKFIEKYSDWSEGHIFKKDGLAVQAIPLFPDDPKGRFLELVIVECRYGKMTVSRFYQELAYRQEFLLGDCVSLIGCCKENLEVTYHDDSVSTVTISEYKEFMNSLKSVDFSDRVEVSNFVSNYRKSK
row,Compound,AC50
1,CSS(=O)(=O)c1cccc2cccnc12,7.95 µM
2,CC1=C(C)/C(=N\OS(=O)(=O)c2ccc(C)cc2)C=CC1=O,8.6 µM
3,CCOc1ccc(N2C(=O)C(Cl)=C(N3CCOCC3)C2=O)cc1,20.3 µM
4,CCn1c(C)c(CS(=O)(=O)c2ccccc2)[nH]c1=O,11.3 µM
5,Nc1nc2ccc(S(=O)(=O)N3CCCCC3)cc2s1,19.5 µM
6,CCN1CCN(C(c2cccnc2)c2cc(Cl)c3cccnc3c2O)CC1 (configuration not stated),13.9 µM
7,Cc1ccccc1N1C(S)=C(C#N)C(=O)NC1c1cccs1 (configuration not stated),17.7 µM
8,CCCNC(=O)Cn1sc2nc(C)cc(C)c2c1=O,2.32 µM

# Same assay, conditions: Rtt109/Vps75 HAT activity, at 19.5 µM (top of the series)
row,Compound,"activity change, negative = inhibition"
1,CC(C)c1ccc(NC(=O)NC(C)c2ccc3c(c2)OCO3)cc1 (configuration not stated),inactive
2,C1CCC(C(CC2CCCCN2)C2CCCCC2)CC1 (configuration not stated),inactive
3,CN(C)CCCN(C(=O)CCOc1ccccc1)c1nc2c(F)cccc2s1,inactive
4,Cc1ccc(NC(=O)OCc2cc(-c3ccccc3)on2)cc1,inactive
5,Cc1cc(Cl)c(S(=O)(=O)N2CCCC2)cc1OCC(N)=O,inactive
6,O=C(CCc1nnc(C2(c3ccc(Cl)cc3)CCC2)o1)NCCCn1cccn1,inactive
7,COc1ccc(S(=O)(=O)N(C)C)cc1NC(=O)Cc1ccc(S(=O)(=O)N2CCOCC2)s1,inactive
8,Cc1ccccc1N1C(S)=C(C#N)C(=O)NC12CCCCC2,inactive
9,C#CCOCCOCCOCCNc1nc(N2CCN(C(=O)[C@H](CCCN=C(N)N)n3cc(C(N)[C@@H](C)CC)nn3)CC2)nc(N2CCN(C(=O)[C@H](CCCCN)n3cc([C@@H](N)CC(N)=O)nn3)CC2)n1 (some centres not stated),inactive
10,CN(C(=O)c1ccc(N2CCCCC2)c([N+](=O)[O-])c1)C1(C)CCS(=O)(=O)C1 (configuration not stated),inactive
11,O=C(Nc1ccc(F)cc1)c1c(O)c2c(n(Cc3ccccc3)c1=O)CCCC2,inactive
12,COCCNC(=O)C(c1ccc(O)cc1)N(Cc1ccccc1)C(=O)CCC(=O)Nc1ccccn1 (configuration not stated),inactive
13,COc1cccc(NC(=O)CSc2nc3c(sc4ccccc43)c(=O)n2CCN(C)C)c1,inactive
14,O=C(CSC1=NCCN1)Nc1cccc([N+](=O)[O-])c1,inactive
15,COc1cccc(C(=O)NNC(=O)CCC(=O)O)c1,inactive
16,COc1ccc(/C=C/C(=O)O)cc1S(=O)(=O)NCc1ccco1,inactive
17,CCN(CC)c1ccc(C(=S)N2CCN(c3ccccc3)CC2)cc1,inactive
18,CCOC(=O)c1ccc(N=C2C(=S)N(c3ccc(C(=O)OCC)cc3)C(=N)N2/N=C/c2ccccc2)cc1,inactive
19,Cc1cc(NC(=O)CCCn2nc([N+](=O)[O-])c(Cl)c2C)no1,inactive
20,Cc1cc(CN2C(=O)c3ccccc3C2=O)no1,inactive
21,COc1ccc(CNC(=O)C2(c3ccc(Cl)cc3)CC2)cc1,inactive
22,CCOC(=O)C1=C(C)N=c2s/c(=C\c3ccc(OCC(=O)O)cc3)c(=O)n2C1c1ccc(OC(C)C)cc1 (configuration not stated),inactive
23,Cc1nn(S(=O)(=O)c2ccc(C(C)C)cc2)c(C)c1S(=O)(=O)N1CCOCC1,inactive
24,Cc1ccccc1/C=C/C(=O)NCC(=O)N1CCC(N(C)C2CCCCC2C)CC1 (configuration not stated),inactive
25,Cc1cccc2sc(N(CCCN(C)C)C(=O)CCc3ccccc3)nc12,inactive
26,O=S(=O)(c1ccc(Cl)cc1)N1CCN(c2ncccn2)CC1,inactive
27,CC1CCCC(NS(=O)(=O)c2cccc3nsnc23)C1C (configuration not stated),inactive
28,CC1(C)C2CCC1(C)C(OCC[N+](C)(C)CC(=O)OC1CCCCC1)C2 (configuration not stated),inactive
29,CC[n+]1c(C)sc2c(C)cc(C)cc21,inactive
